This note sets out measurements from patent US20250115600A1, “COVALENT MODIFIERS OF AKT1 AND USES THEREOF” (Terremoto Biosciences, Inc., priority 2022, published 2025).

Holding throughout (assay): Live cell target engagement (NanoBRET) in HEK293 cells
Format in all cases: cell-based

The target in test [1] is AKT1 E17K (Homo sapiens (Human), UniProt P31749, E17K). The conditions noted are these: for IC50: HEK293, 2 hours at 37° C.
Test [2] deals with AKT1 WT (Homo sapiens (Human), UniProt P31749). Conditions: HEK293, 2 hours at 37° C.
Test [3] deals with AKT2 (Homo sapiens (Human), UniProt P31751). Conditions: HEK293, 2 hours at 37° C.
Chain of AKT2 (P31751 whole entry): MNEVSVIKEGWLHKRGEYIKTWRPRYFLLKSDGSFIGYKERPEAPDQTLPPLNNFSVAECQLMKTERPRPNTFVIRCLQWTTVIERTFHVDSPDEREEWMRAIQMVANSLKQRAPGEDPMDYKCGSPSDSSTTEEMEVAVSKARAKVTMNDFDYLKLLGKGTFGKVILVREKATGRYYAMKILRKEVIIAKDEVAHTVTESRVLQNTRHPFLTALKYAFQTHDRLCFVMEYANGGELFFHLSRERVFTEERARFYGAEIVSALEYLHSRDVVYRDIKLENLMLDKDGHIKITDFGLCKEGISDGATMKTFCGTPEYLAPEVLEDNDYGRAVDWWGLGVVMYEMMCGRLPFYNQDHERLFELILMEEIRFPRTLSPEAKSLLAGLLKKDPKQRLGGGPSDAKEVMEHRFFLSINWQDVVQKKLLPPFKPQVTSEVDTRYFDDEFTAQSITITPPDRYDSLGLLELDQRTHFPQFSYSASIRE

Chain of AKT1 WT (P31749 whole entry): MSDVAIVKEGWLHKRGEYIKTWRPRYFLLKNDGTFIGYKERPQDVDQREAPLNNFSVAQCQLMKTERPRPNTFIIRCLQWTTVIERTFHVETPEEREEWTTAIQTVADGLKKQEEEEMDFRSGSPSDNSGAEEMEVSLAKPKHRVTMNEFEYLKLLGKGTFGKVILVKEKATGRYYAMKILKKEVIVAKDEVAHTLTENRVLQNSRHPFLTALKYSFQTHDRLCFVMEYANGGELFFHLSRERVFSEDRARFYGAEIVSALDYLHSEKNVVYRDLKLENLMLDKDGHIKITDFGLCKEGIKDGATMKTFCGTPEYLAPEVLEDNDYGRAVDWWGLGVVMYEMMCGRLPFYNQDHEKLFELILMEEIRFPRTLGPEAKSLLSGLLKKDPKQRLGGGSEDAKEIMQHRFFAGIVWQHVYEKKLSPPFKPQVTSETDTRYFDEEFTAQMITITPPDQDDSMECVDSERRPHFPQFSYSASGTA
Chain of AKT1 E17K (P31749 whole entry E17K): as the sequence (P31749 whole entry) above, with E17K counted along it

In the case of `Nc1ncccc1-c1nc2ccc(-c3ccccc3)nc2n1-c1ccc(CNC(=O)Cc2cnc(C=O)c(O)c2)cc1` [Compound 77, N-(4-(2-(2-aminopyridin-3-yl)-5-phenyl-3H-imidazo[4,5-b]pyridin-3-yl)benzyl)-2-(6-formyl-5-hydroxypyridin-3-yl)acetamide], in test [1], the “AKT1 E17K IC50: Selectivity vs AKT1 WT” value was determined as 4.3, the “AKT1 E17K IC50: Selectivity vs AKT2” value was found to be 39 and the IC50 was less than 100 nM. Further, the IC50 in test [2] was in the range of 100 to 500 nM. The IC50 in test [3] is greater than 500 nM.
Consider `Nc1ncccc1-c1nc2ccc(-c3cccnc3)nc2n1-c1ccc(CNC(=O)c2ccc(O)c(C=O)c2)cc1` [Compound 71, N-(4-(2-(2-aminopyridin-3-yl)-5-(pyridin-3-yl)-3H-imidazo[4,5-b]pyridin-3-yl)benzyl)-3-formyl-4-hydroxybenzamide], for which, in test [1], the “AKT1 E17K IC50: Selectivity vs AKT1 WT” value is 5.8, the “AKT1 E17K IC50: Selectivity vs AKT2” value is 37 and the 50% inhibitory concentration (IC50) was less than 100 nM. Moreover, the IC50 in test [2] was less than 100 nM. Moreover, the IC50 in test [3] was in the range of 100 to 500 nM.
As for `Nc1ncccc1-c1nc2cccnc2n1-c1ccc(CNC(=O)C2(c3ccc(C=O)c(O)c3)CC2)cc1` [Compound 82, N-(4-(2-(2-aminopyridin-3-yl)-3H-imidazo[4,5-b]pyridin-3-yl)benzyl)-1-(4-formyl-3-hydroxyphenyl)cyclopropane-1-carboxamide], in test [1], the “AKT1 E17K IC50: Selectivity vs AKT1 WT” value was 29, the “AKT1 E17K IC50: Selectivity vs AKT2” value was greater than 400 and the IC50 was less than 100 nM. The IC50 in test [2] was greater than 500 nM. The IC50 in test [3] is greater than 500 nM.
For `Nc1ncccc1-c1nc2ccc(-c3ccccn3)nc2n1-c1ccc(CNCCc2ccc(C=O)c(O)c2)cc1` [Compound 103, 4-{2-[({4-[2-(2-aminopyridin-3-yl)-5-(pyridin-2-yl)imidazo[4,5-b]pyridin-3-yl]phenyl}methyl)amino]ethyl}-2-hydroxybenzaldehyde], in test [1], the “AKT1 E17K IC50: Selectivity vs AKT1 WT” value is reported as 2.5, the “AKT1 E17K IC50: Selectivity vs AKT2” value was determined as 11 and the IC50 was less than 100 nM. For the same compound, the IC50 in test [2] is less than 100 nM. Besides, the IC50 in test [3] was 100 to 500 nM.
Turning to `Nc1ncccc1-c1nc2ccc(-c3ccccc3)nc2n1-c1ccc(CNC(=O)c2cc(Br)c(O)c(C=O)c2)cc1` [Compound 50, N-({4-[2-(2-aminopyridin-3-yl)-5-phenylimidazo[4,5-b]pyridin-3-yl]phenyl}methyl)-3-bromo-5-formyl-4-hydroxybenzamide], the “AKT1 E17K IC50: Selectivity vs AKT1 WT” value in test [1] is 2.1. The “AKT1 E17K IC50: Selectivity vs AKT2” value in test [1] is 32. The IC50 in test [1] is less than 100 nM; in test [2], less than 100 nM; in test [3], 100 to 500 nM.
With `CN(CCc1ccc(-n2c(-c3cccnc3N)nc3ccc(-c4ccccc4)nc32)cc1)Cc1ccc(C=O)c(O)c1` [Compound 39, 4-{[(2-{4-[2-(2-aminopyridin-3-yl)-5-phenylimidazo[4,5-b]pyridin-3-yl]phenyl}ethyl)(methyl)amino]methyl}-2-hydroxybenzaldehyde], in test [1], the “AKT1 E17K IC50: Selectivity vs AKT1 WT” value was 1.5, the “AKT1 E17K IC50: Selectivity vs AKT2” value is reported as 5.2 and the IC50 was less than 100 nM. In test [2], the IC50 lay within 100 to 500 nM. For the same compound, the IC50 in test [3] fell in the range of 100 to 500 nM.
Take `Nc1ncccc1-c1nc2ccc(-c3cccc(N4CCOCC4)c3)nc2n1-c1ccc(CCNCc2ccc(C=O)c(O)c2)cc1` [Example 19, 4-(((4-(2-(2-aminopyridin-3-yl)-5-(3-morpholinophenyl)-3H-imidazo[4,5-b]pyridin-3-yl)phenethyl)amino)methyl)-2-hydroxybenzaldehyde]: in test [1], the “AKT1 E17K IC50: Selectivity vs AKT1 WT” value is on record as 1.7, the “AKT1 E17K IC50: Selectivity vs AKT2” value was determined as 4.9 and the IC50 was less than 100 nM. The IC50 in test [2] is less than 100 nM. Further, in test [3], the IC50 is less than 100 nM.
`Nc1ncccc1-c1nc2ccc(C3CC3)nc2n1-c1ccc(CNC(=O)Cc2ccc(C=O)c(O)c2)cc1` [Compound 66, N-({4-[2-(2-aminopyridin-3-yl)-5-cyclopropylimidazo[4,5-b]pyridin-3-yl]phenyl}methyl)-2-(4-formyl-3-hydroxyphenyl)acetamide]: in test [1], the “AKT1 E17K IC50: Selectivity vs AKT1 WT” value amounted to 3.5, the “AKT1 E17K IC50: Selectivity vs AKT2” value is given as 830 and the IC50 is less than 100 nM. The IC50 in test [2] is less than 100 nM. In test [3], this compound came in with a concentration for half-maximal inhibition (IC50) greater than 500 nM.
`Nc1ncccc1-c1nc2ccc(-c3ccccc3)nc2n1-c1ccc(CN2CCC(c3ccc(O)c(C=O)c3)CC2)cc1` [Compound 136, 5-(1-(4-(2-(2-aminopyridin-3-yl)-5-phenyl-3H-imidazo[4,5-b]pyridin-3-yl)benzyl)piperidin-4-yl)-2-hydroxybenzaldehyde]: the “AKT1 E17K IC50: Selectivity vs AKT1 WT” value in test [1] stood at 1.3. Moreover, the “AKT1 E17K IC50: Selectivity vs AKT2” value in test [1] is reported as 1.9. Moreover, the IC50 in test [1], in test [2] and in test [3] was less than 100 nM throughout.
On to `Nc1ncccc1-c1nc2ccc(N3CCOCC3)nc2n1-c1ccc(CNC(=O)c2ccc(O)c(C=O)c2)cc1` [Example 3, N-(4-(2-(2-aminopyridin-3-yl)-5-morpholino-3H-imidazo[4,5-b]pyridin-3-yl)benzyl)-3-formyl-4-hydroxybenzamide], for which, in test [1], the “AKT1 E17K IC50: Selectivity vs AKT1 WT” value was determined as 2.2, the “AKT1 E17K IC50: Selectivity vs AKT2” value came out at 36 and the IC50 lay within 100 to 500 nM. In addition, in test [2], the IC50 was 100 to 500 nM. In test [3], this compound displayed an IC50 greater than 500 nM.
As for `Nc1ncccc1-c1nc2ccc(-c3ccccc3)nc2n1-c1ccc(CNC(=O)c2ccc(C=O)c(O)c2F)cc1` [Compound 85, N-({4-[2-(2-aminopyridin-3-yl)-5-phenylimidazo[4,5-b]pyridin-3-yl]phenyl}methyl)-2-fluoro-4-formyl-3-hydroxybenzamide], in test [1], the “AKT1 E17K IC50: Selectivity vs AKT1 WT” value is listed as 1.3, the “AKT1 E17K IC50: Selectivity vs AKT2” value is recorded as 6.5 and the IC50 was less than 100 nM. Moreover, the IC50 in test [2] was less than 100 nM. The same compound came in with an IC50 in test [3] of 100 to 500 nM.
Regarding `CN(C)C(=O)Nc1cc(CC(=O)NCc2ccc(-n3c(-c4cccnc4N)nc4cccnc43)cc2)ccc1C=O` [Compound 43, N-(4-(2-(2-aminopyridin-3-yl)-3H-imidazo[4,5-b]pyridin-3-yl)benzyl)-2-(3-(3,3-dimethylureido)-4-formylphenyl)acetamide], in test [1], the “AKT1 E17K IC50: Selectivity vs AKT1 WT” value was 4.5, the “AKT1 E17K IC50: Selectivity vs AKT2” value is reported as greater than 150 and the IC50 was less than 100 nM. The compound also came in with an IC50 in test [2] of 100 to 500 nM. The IC50 in test [3] was greater than 500 nM.
As for `Nc1ncccc1-c1nc2cccnc2n1-c1ccc(CNC(=O)C(F)(F)c2ccc(C=O)c(O)c2)cc1` [Compound 78, N-(4-(2-(2-aminopyridin-3-yl)-3H-imidazo[4,5-b]pyridin-3-yl)benzyl)-2,2-difluoro-2-(4-formyl-3-hydroxyphenyl)acetamide], in test [1], the “AKT1 E17K IC50: Selectivity vs AKT1 WT” value amounted to 2.2, the “AKT1 E17K IC50: Selectivity vs AKT2” value is 43 and the IC50 is less than 100 nM. The compound also gave an IC50 in test [2] of 100 to 500 nM. The compound further displayed an IC50 in test [3] greater than 500 nM.
Regarding `CC(C)c1ccc2nc(-c3cccnc3N)n(-c3ccc(CNC(=O)Cc4ccc(C=O)c(O)c4)cc3)c2n1` [Example 23, N-({4-[2-(2-aminopyridin-3-yl)-5-isopropylimidazo[4,5-b]pyridin-3-yl]phenyl}methyl)-2-(4-formyl-3-hydroxyphenyl)acetamide], in test [1], the “AKT1 E17K IC50: Selectivity vs AKT1 WT” value is recorded as 4.8, the “AKT1 E17K IC50: Selectivity vs AKT2” value is 270 and the IC50 is less than 100 nM. In test [2], this compound showed an IC50 of less than 100 nM. For the same compound, the IC50 in test [3] was greater than 500 nM.
Consider `CC(=O)Nc1cc(CCNCc2ccc(-n3c(-c4cccnc4N)nc4cccnc43)cc2)ccc1C=O` [Compound 98, N-(5-{2-[({4-[2-(2-aminopyridin-3-yl)imidazo[4,5-b]pyridin-3-yl]phenyl}methyl)amino]ethyl}-2-formylphenyl)acetamide], for which, in test [1], the “AKT1 E17K IC50: Selectivity vs AKT1 WT” value is 2.5, the “AKT1 E17K IC50: Selectivity vs AKT2” value came out at 38 and the IC50 was less than 100 nM. The compound further came in with an IC50 in test [2] of less than 100 nM. This compound registered an IC50 in test [3] greater than 500 nM.
For `Nc1ncccc1-c1nc2ccc(-c3ccccc3)nc2n1-c1ccc(CNC(=O)C2(c3ccc(C=O)c(O)c3)CC2)cc1` [Compound 69, N-({4-[2-(2-aminopyridin-3-yl)-5-phenylimidazo[4,5-b]pyridin-3-yl]phenyl}methyl)-1-(4-formyl-3-hydroxyphenyl)cyclopropane-1-carboxamide], in test [1], the “AKT1 E17K IC50: Selectivity vs AKT1 WT” value was 16, the “AKT1 E17K IC50: Selectivity vs AKT2” value is listed as greater than 160 and the IC50 is less than 100 nM. In test [2], the IC50 was greater than 500 nM. In test [3], this compound gave an IC50 greater than 500 nM.
For `Nc1ncccc1-c1nc2ccc(-c3ccccc3)nc2n1-c1ccc(C2(NCCc3ccc(C=O)c(O)c3)CCC2)cc1` [Compound 134, 4-(2-((1-(4-(2-(2-aminopyridin-3-yl)-5-phenyl-3H-imidazo[4,5-b]pyridin-3-yl)phenyl)cyclobutyl)amino)ethyl)-2-hydroxybenzaldehyde], in test [1], the “AKT1 E17K IC50: Selectivity vs AKT1 WT” value is listed as 2.3, the “AKT1 E17K IC50: Selectivity vs AKT2” value is on record as 4.3 and the IC50 is greater than 500 nM. Further, the IC50 in test [2] is greater than 500 nM. In addition, the IC50 in test [3] is greater than 500 nM.
As for `Cc1c(CC(=O)NCc2ccc(-n3c(-c4cccnc4N)nc4ccc(-c5ccccc5)nc43)cc2)ccc(C=O)c1O` [Example 14, N-({4-[2-(2-aminopyridin-3-yl)-5-phenylimidazo[4,5-b]pyridin-3-yl]phenyl}methyl)-2-(4-formyl-3-hydroxy-2-methylphenyl)acetamide], the “AKT1 E17K IC50: Selectivity vs AKT1 WT” value in test [1] came to 3.3. Besides, the “AKT1 E17K IC50: Selectivity vs AKT2” value in test [1] stood at 36. Further, the IC50 was less than 100 nM in test [1], less than 100 nM in test [2] and 100 to 500 nM in test [3].
